# Experimental data taken from patent US20230228736A1, “IN VITRO HBV CORE PROTEIN ASSAY” (Janssen Sciences Ireland Unlimited Company, priority 2020, published 2023).
# Like-named read-outs stand apart in the source and are kept apart here.
# Experiments:
# HBV core protein = molecular target: T1, HBV core protein (Hepatitis B virus genotype D subtype ayw, UniProt P03146); assay: Cellular HBV core high-content imaging assay (cytosolic and nuclear aggregated core / core speckling); format: cell-based; conditions: HepG2.117 cells; for dose-dependent cytoplasmic and nuclear core speckling phenotype / Cytosolic aggregated core Median max effect at 25 μM (Range) / Nuclear aggregated core Median max effect at 25 μM (Range) / EC50: 72 h; for dose-dependent cytoplasmic and nuclear core speckling phenotype: 11 concentrations, robustness test; for Cytosolic aggregated core Median max effect at 25 μM (Range) / Nuclear aggregated core Median max effect at 25 μM (Range): normalized to 1 μM GLS-4 high control (100% effect); for EC50: median over inter-/intra-assay plate groups
# T1 construct: withdrawal of doxycycline from the cell culture medium which results in expression of core and polymerase HBV proteins; expressed in transfected cells; host or cells: HepG2.117 (human hepatoma-derived, stably transfected with the HBV genome, Tet-off)
# T1 sequence (P03146 whole entry): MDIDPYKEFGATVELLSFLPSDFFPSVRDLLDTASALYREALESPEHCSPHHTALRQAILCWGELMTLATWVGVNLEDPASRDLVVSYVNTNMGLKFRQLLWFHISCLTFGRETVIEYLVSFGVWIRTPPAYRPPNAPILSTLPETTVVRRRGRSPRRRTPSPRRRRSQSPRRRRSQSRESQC
# Protocol: After trypsinization, HepG2.117 cells were washed once with phosphate buffered saline (PBS). Cells were centrifuged at 1,500 rpm for 5 minutes and divided in two fractions. The fraction that was used for the core-suppressed HepG2.117 cell controls (background control, BC) was resuspended in DMEM supplemented with 2% Tet-system-approved fetal calf serum (FCS; Clontech), 2 mM alanyl-glutamine, lx non-essential amino acids (NEAA; Sigma-Aldrich), and 100 ng/ml doxycycline to suppress core expression. The other fraction was resuspended in DMEM supplemented with 2% Tet-system-approved FCS, 2 mM alanyl-glutamine, and 1×NEAA and used for sample wells, the core-expressing low control wells (LC) and aggregated core-expressing high control wells (HC). 2,000 cells per well were seeded for the assay validation, while 1,500 cells per well were seeded in the cellular screening campaign. Test compound-containing 384-well black poly-D-lysine CellCarrier tissue culture treated plates with an optically clear bottom (Perkin Elmer, Waltham, Mass.) were used. Test compounds were used in dose range in the presence of 1% dimethyl sulfoxide (DMSO). Aggregated core expressing high control wells were treated with 1 μM GLS-4. Compound plates with seeded cells were incubated for 72 h at 37° C. and 5% CO2.
# After about 72 hours, cells were fixed with 5% ultra-pure methanol-free formaldehyde (Polysciences, Warrington, Pa.) for 15 minutes and washed three times with PBS. Next, cells were permeabilized for 30 minutes using 0.5% Triton-X-100 (Sigma-Aldrich) dissolved in PBS and washed again three times with PBS. Cells were incubated for 1 hour with PBS containing 5% bovine serum albumin to block Fc receptors. Core protein was detected with primary monoclonal mouse core antibody at a concentration of 666 ng/ml or polyclonal rabbit core antibody at a concentration of 65 μg/ml in PBS containing 5% bovine serum albumin (Sigma-Aldrich). After overnight incubation at 4° C., cells were washed three times with PBS and primary antibody was detected with 2 μg/ml Alexa Fluor-488 goat anti-mouse or goat anti-rabbit secondary antibody. Nuclei and cytoplasm were co-stained using 2 μg/ml Hoechst 33258 (nuclei) and 500 ng/ml HCS CellMask™ Deep Red (entire cells) solution. After 1 hour of incubation at room temperature, cells were washed three times with PBS.
# The Opera Phenix™ high-content screening system (Perkin Elmer) was used for automated imaging. A 405-nm laser with 100% power was used with an exposure time of 200 ms to excite Hoechst 33258 (emitting its fluorescent light at 461-nm); emission light was captured using a 435/480 nm emission filter. Simultaneously, HCS CellMask™ Deep Red signal (emitting its fluorescent light at 655-nm) was excited by a 635-nm laser with a 25 ms exposure time and a laser power reduced to 25%; red emitted light was captured using an emission filter of 650/760 nm. Alexa Fluor 488 fluorophores were excited using a 488-nm laser with 100% power and an exposure of 200 ms, whereby the emission filter 500/550 nm was chosen. This detection was performed independently from Hoechst and HCS CellMask™ Deep Red as the fluorescence spectrum of Hoechst overlaps with that of Alexa Fluor-488. A 20× water immersion objective with a numerical aperture of 1.0 was used for imaging of four fields per well.
# Images were analyzed with a custom Acapella (Perkin Elmer) script. Nuclei identification was based on the Hoechst 33258 channel, cytoplasm segmentation was based on the HCS CellMask™ Deep Red channel and core protein intensity and texture features were calculated using the Alexa Fluor 488 channel. The cell count feature was used as a measure for cytotoxicity. […] The texture feature “SERSpot” at scale 1.0 was calculated in the nuclear and cytoplasm region of each cell to quantify aggregated core and averaged across all cells on the well-level.
# [1] = molecular target: T2, intracellular capsids (HBV core protein) (Hepatitis B virus genotype D subtype ayw, UniProt P03146); assay: Capsid depletion assay: native polyacrylamide gel electrophoresis with immunoblotting for detection of capsids; format: cell-based; conditions: HepG2.117 cells treated for 3 days, native PAGE/western blot
# T2 construct: withdrawal of doxycycline from the cell culture medium which results in expression of core and polymerase HBV proteins; expressed in transfected cells; host or cells: HepG2.117 (human hepatoma-derived, stably transfected with the HBV genome, Tet-off)
# T2 sequence (P03146 whole entry): as above
# Protocol: HepG2.117 cells cultured in 2% serum containing assay medium as described above were plated in a 12-well plate at a cell density of 500,000 cells/well and incubated at 37° C. and 5% CO2. After overnight incubation, cells were treated with test compound or DMSO for 72 hours at 37° C. and 5% CO2. Afterwards, cells were washed once with PBS and lysed with 300 μl 10 mM Tris-HCl (pH 7.6), 100 mM NaCl, 1 mM ethylenediaminetetraacetic acid (EDTA), and 0.1% NP-40 supplemented with 1× Halt™ Protease Inhibitor Cocktail (Thermo Fisher Scientific, Waltham, Mass.). After lysis of the cells at 37° C. for 10 minutes, cell debris was discarded by centrifugation at 5,000×g for 10 minutes. Supernatant was collected and protein concentration was determined using the DC (detergent compatible) protein assay (Bio-Rad, Hercules, Calif.). Of protein/sample, 2.2 μg was loaded on a NativePAGE™ Novex® 3-12% Bis-Tris Gel (Invitrogen, Waltham, Mass.) with electrophoresis performed at room temperature using NativePAGE™ Running Buffer and NativePAGE™ Cathode Additive. Proteins were transferred using the Novex® iBlot® Transfer Stack, PVDF, regular size kit followed by a standard immunoblotting procedure using primary polyclonal rabbit core antibody at a concentration of 16.25 μg/ml with overnight incubation. […]
SMILES,dose-dependent cytoplasmic and nuclear core speckling phenotype (HBV core protein),Cytosolic aggregated core Median max effect at 25 μM (Range) (HBV core protein),Nuclear aggregated core Median max effect at 25 μM (Range) (HBV core protein),EC50 (HBV core protein; read-out: Cytosolic aggregated core Median EC50 (μM) (Range)) [µM],EC50 (HBV core protein; read-out: Nuclear aggregated core Median EC50 (μM) (Range)) [µM],depletion of intracellular capsids [1],"phenotypic core immunostaining pattern (HBV core protein; core expressing (-DOX), FIG. 2A/2B)"
COC(=O)C1=C(CN2CCOCC2)NC(c2ccccn2)=NC1c1ccc(F)cc1Cl (stereo not shown) [Compound 5],dose-dependent cytoplasmic and nuclear core speckling phenotype was observed,72.1,86.2,0.078,0.085,,
COC(=O)C1=C(C)NC(c2ncc(F)cc2F)=N[C@H]1c1ccc(F)cc1Cl [Compound 14],dose-dependent cytoplasmic and nuclear core speckling phenotype was observed,68.1,139.2,,,dose-dependent depletion of intracellular capsids,aggregated dot-like pattern of core proteins
